Test results: patent US8575145B2, “Triazolopyridine compounds as PIM kinase inhibitors” (Array BioPharma Inc., priority 2008, dated 2013)
Counter-ions that a name gives are not always drawn. Like-named read-outs stand apart in the source and are kept apart here.

Tests used:
[1] = biological target: PIM-1 (Homo sapiens (Human), UniProt P11309); assay: PIM-1 Enzyme Assay; format: biochemical
Procedure: The amount of radiolabeled product is then measured by liquid scintillation counting. The final buffer conditions were as follows: 20 mM K^+MOPS, pH 7.4, 10 mM MgCl2, 0.005% Tween-20, 1 mM DTT. […] Incubations were carried out for 60 min at 22° C. and quenched with 75 μL of 200 mM H3PO4, filtered through a Whatman P81 plate and washed (1×200 μL and 5×100 μL ) with 200 mM H3PO4. Liquid scintillation cocktail (50 μL ) was then added per well, and the plate was counted for 30 s/well using a TopCount NXT.
One-μL aliquots of these were then transferred to the assay mixtures above to give a final concentration of DMSO of 2%. […] For each plate, percent of control (POC) values were calculated for each well. IC50's were estimated from the POC's using a standard 4-parameter logistic model. The IC50 is defined as the concentration of inhibitor at which the POC equals 50 for the fitted curve.

[2] = biological target: GST-tagged recombinant full-length human PIM-2 (Homo sapiens (Human), UniProt Q9P1W9); assay: PIM-2 Enzyme Assay
[3] = read-out: PIM-2 IC50, 4 μM ATP, […] PIM-2

Chain of GST-tagged recombinant full-length human PIM-2 (Q9P1W9 whole entry): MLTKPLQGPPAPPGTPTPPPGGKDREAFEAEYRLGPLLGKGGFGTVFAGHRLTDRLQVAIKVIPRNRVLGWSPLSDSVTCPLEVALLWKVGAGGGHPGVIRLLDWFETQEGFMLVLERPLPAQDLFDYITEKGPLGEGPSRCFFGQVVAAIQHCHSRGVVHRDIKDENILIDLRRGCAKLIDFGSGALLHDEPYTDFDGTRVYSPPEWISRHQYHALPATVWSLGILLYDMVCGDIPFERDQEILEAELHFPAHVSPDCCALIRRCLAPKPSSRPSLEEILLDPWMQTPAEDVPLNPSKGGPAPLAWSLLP
Chain of PIM-1 (P11309 whole entry, species assumed): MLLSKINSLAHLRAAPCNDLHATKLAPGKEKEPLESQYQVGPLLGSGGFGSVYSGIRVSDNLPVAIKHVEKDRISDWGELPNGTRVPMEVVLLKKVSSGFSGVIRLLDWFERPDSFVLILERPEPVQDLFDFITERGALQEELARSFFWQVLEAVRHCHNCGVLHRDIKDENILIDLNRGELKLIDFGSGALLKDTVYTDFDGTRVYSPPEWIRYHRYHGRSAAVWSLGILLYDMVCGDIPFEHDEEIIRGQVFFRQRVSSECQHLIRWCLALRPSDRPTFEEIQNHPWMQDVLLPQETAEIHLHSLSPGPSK

Row | Structure (SMILES) | IC50 ([1]; 35 μM ATP, 0.25 nM PIM-1) [nM] | IC50 [2, 3] [nM] | other results
1 | F[C@@H]1CNCC[C@@H]1Oc1cccc2ccc(-c3nnc4ccc(Br)cn34)nc12 (relative stereo) [Example 78, 2-(6-bromo-[1,2,4]triazolo[4,3-a]pyridin-3-yl)-8-((cis)-3-fluoropiperidin-4-yloxy)quinoline dihydrochloride] | 8 | – | IC50 ([2]; read-out: PIM-2 IC50): 1280 nM
2 | F[C@@H]1CNCC[C@@H]1Oc1cccc2ccc(-c3nnc4ccc(C5CC5)cn34)nc12 (relative stereo) [Example 80, 2-(6-cyclopropyl-[1,2,4]triazolo[4,3-a]pyridin-3-yl)-8-((cis)-3-fluoropiperidin-4-yloxy)quinoline dihydrochloride] | 2 | 1160 | –
3 | F[C@@H]1CNCC[C@@H]1Oc1cccc2ccc(-c3nnc4ccc(-c5ccccc5)cn34)nc12 (relative stereo) [Example 82, 8-((cis)-3-fluoropiperidin-4-yloxy)-2-(6-phenyl-[1,2,4]triazolo[4,3-a]pyridin-3-yl)quinoline dihydrochloride] | – | 1040 | IC50 [1]: 3 nM
4 | F[C@@H]1CCNCC[C@H]1Oc1cccc2ccc(-c3nnc4ccc(C5CC5)cn34)nc12 (relative stereo) [Example 98, 2-(6-cyclopropyl-[1,2,4]triazolo[4,3-a]pyridin-3-yl)-8-((trans)-5-fluoroazepan-4-yloxy)quinoline dihydrochloride] | 0.7 | 661 | –
5 | N#Cc1ccc2nnc(-c3ccc4cccc(O[C@@H]5CCNCC[C@H]5F)c4n3)n2c1 (relative stereo) [Example 101, 3-(8-((trans)-5-fluoroazepan-4-yloxy)quinolin-2-yl)-[1,2,4]triazolo[4,3-a]pyridine-6-carbonitrile dihydrochloride] | 13 | 1000 | –
6 | Fc1ccc2nnc(-c3ccc4cccc(O[C@@H]5CCNCC[C@H]5F)c4n3)n2c1 (relative stereo) [Example 102, 2-(6-fluoro-[1,2,4]triazolo[4,3-a]pyridin-3-yl)-8-((trans)-5-fluoroazepan-4-yloxy)quinoline dihydrochloride] | – | 440 | IC50 [1]: 4.9 nM
7 | CN1CC[C@@H](F)[C@H](Oc2cccc3ccc(-c4nnc5ccccn45)nc23)CC1 (relative stereo) [Example 118, 2-([1,2,4]triazolo[4,3-a]pyridin-3-yl)-8-((trans)-5-fluoro-1-methylazepan-4-yloxy)quinoline] | 3 | 330 | –
8 | CN(C)CC(C)(C)COc1cccc2ccc(-c3nnc4ccccn34)nc12 [Example 21, 3-(2-([1,2,4]triazolo[4,3-a]pyridin-3-yl)quinolin-8-yloxy)-N,N,2,2-tetramethylpropan-1-amine] | – | 1350 | –
9 | CC(C)(C)COc1cccc2ccc(-c3nnc4ccccn34)nc12 [Example 23, 2-([1,2,4]triazolo[4,3-a]pyridin-3-yl)-8-(neopentyloxy)quinoline] | – | 144 | –
10 | NCC(F)(F)COc1cccc2ccc(-c3nnc4ccccn34)nc12 [Example 41, 3-(2-([1,2,4]triazolo[4,3-a]pyridin-3-yl)quinolin-8-yloxy)-2,2-difluoropropan-1-amine] | – | 182 | –
11 | N[C@H]1CC[C@@H](Oc2cccc3ccc(-c4nnc5ccccn45)nc23)CC1 [Example 42, (cis)-4-(2-([1,2,4]triazolo[4,3-a]pyridin-3-yl)quinolin-8-yloxy)cyclohexanamine] | – | – | IC50 ([2]; PIM-2 IC50 (nM), 4 μM ATP, […] PIM-2): 22 nM
12 | CCC(CC)(CO)COc1cccc2ccc(-c3nnc4ccccn34)nc12 [Example 131] | – | 1000 | –
13 | CC(C)(CCN)COc1cccc2ccc(-c3nnc4ccccn34)nc12 [Example 132, 4-(2-([1,2,4]triazolo[4,3-a]pyridin-3-yl)quinolin-8-yloxy)-3,3-dimethylbutan-1-amine] | – | 76.5 | –
14 | CC(C)(CNCC(F)(F)F)COc1cccc2ccc(-c3nnc4ccccn34)nc12 [Example 136, 3-(2-([1,2,4]triazolo[4,3-a]pyridin-3-yl)quinolin-8-yloxy)-2,2-dimethyl-N-(2,2,2-trifluoroethyl)propan-1-amine] | – | 362 | –
